Measurements: patent US20240390311A1 (priority 2020, published 2024)
Like-named read-outs stand apart in the source and are kept apart here.

How the values were obtained:
[1] = tested on: MHV-1; assay type: in vivo, A/J mice; settings: for body weight loss / death rate / disease (illness) scores / lung coefficient index: Example 2, in water: GABA 2 mg/mL, homotaurine 0.25 mg/mL, baclofen 0.25 mg/mL, vs untreated controls
[2] = tested on: SARS-CoV-2; assay type: in vivo, K18-hACE2 mice; settings: for mice surviving on days 7-8 post-infection: control 20%
[3] = tested on: autoreactive Th1 and Th17 cells; settings: cited from earlier work; for disease progression in mouse models of type 1 diabetes, multiple sclerosis, and rheumatoid arthritis: administration of GABA or homotaurine; for CD4+ and CD8+ Treg responses / autoreactive Th1 and Th17 cells: in vivo administration
[4] = tested on: SARS-CoV-2; settings: NIH (NCATS) screen; cited from earlier work
[5] = cited from earlier work
[6] = tested on: SARS-CoV-2; assay type: in vivo, K18-hACE2 mice
[7] = hundreds of epilepsy patients, long-term studies
[8] = GABA 2 mg/mL treated vs untreated infected mice
[9] = GABA 2 mg/mL vs untreated infected mice, p<0.001
[10] = GABA-treated vs SC group, no statistically significant difference

NCC(CC(=O)O)c1ccc(Cl)cc1 (stereo not drawn) [Baclofen, baclofen]
body weight loss [1]: did not significantly decrease | death rate [1]: did not significantly decrease | disease (illness) scores [1]: slight but significant ability to reduce | lung coefficient index [1]: did not significantly decrease

NCCCC(=O)O [GABA, gamma-aminobutyric acid]
body weight loss [1]: significantly reduced | death rate [1]: significantly reduced | disease (illness) scores [1]: significantly reduced | highest average illness score ([1]; GABA 20 mg/ml immediately after inoculation, day 7 post-infection, scale 0-5): 1.6 | body weight at 14 days post-infection, of starting weight ([1]; GABA 20 mg/ml starting 3 days post-infection): 90% | maximum mean illness score ([1]; GABA 20 mg/ml starting 3 days post-infection, scale 0-5): 2.5 | mice that died ([1]; GABA 20 mg/ml starting 3 days post-infection, up to 14 days (death on day 9)): 1/9 | average body weight below starting weight 14 days post-infection ([1]; GABA 20 mg/ml starting immediately after MHV-1 inoculation): 7% | mice that died ([1]; GABA 20 mg/ml starting immediately after MHV-1 inoculation, up to 14 days, control 3/9 survived): none | mice survived at end of study on day 7 ([2]; Example 4, GABA 2 mg/mL started 2 days post-infection, control 22%, p=0.004): 88% | longitudinal mean illness scores ([2]; Example 4, GABA 2 mg/mL started 2 days post-infection, overall p=0.002): reduced | mice that died during the 7-day observation period ([2]; Trial 1, GABA 0.2 mg/mL in water, control 3/5 died): none | mice surviving on days 7-8 post-infection ([2]; Trial 2, GABA 0.2 mg/mL, p=0.004): 80% | mice surviving on days 7-8 post-infection ([2]; Trial 2, GABA 2 mg/mL, p=0.018): 80% | illness scores ([2]; Trial 2, GABA 0.2 or 2.0 mg/mL in water from infection, vs control): significantly reduced | disease progression in mouse models of type 1 diabetes, multiple sclerosis, and rheumatoid arthritis [3]: inhibits | CD4+ and CD8+ Treg responses [3]: promoting | autoreactive Th1 and Th17 cells [3]: inhibits | SARS-CoV-2 interaction with its cellular receptor [4]: did not interfere | SARS-CoV-2 replication [4]: did not interfere | ability to reduce seizures [5, 7]: no clinical benefit | adverse effects [5, 7]: no adverse effects | safety ([5]; phase Ib GABA oral dosing study): safe | serum GM-CSF level [6, 8]: not found to have a statistically significant difference | serum IFNα level [6, 8]: not found to have a statistically significant difference | serum IFNβ level [6, 8]: not found to have a statistically significant difference | serum IFNγ level [6, 8]: not found to have a statistically significant difference | serum IL-12 level [6, 8]: not found to have a statistically significant difference | serum IL-10 levels [6, 9]: further significantly elevated | serum IP-10 (CXCL10) levels [6, 9]: significantly reduced | TNFα production (serum) ([6]; GABA 2 mg/mL vs untreated infected, p<0.001): significantly mitigated | mice with detectable IFNβ levels ([6]; GABA 2 mg/mL, 1/10 in healthy and infected control groups): 3/10 | mice with high levels of IFNγ ([6]; GABA 2 mg/mL, 3/10 in untreated infected group): 1/10 | median and mean levels of IFNα ([6]; GABA treated vs. untreated infected group, p=0.14): slightly elevated | serum IL-1β level [6, 10]: slightly reduced | serum IL-6 level [6, 10]: slightly reduced | median and mean IFNγ levels ([6]; GABA-treated vs. untreated infected mice, p=0.25): reduced | serum CCL2 levels ([6]; GABA-treated vs. untreated-infected mice, p=0.07): tending to be lower | serum CCL5 level ([6]; among HC, SC and GABA groups): No statistically significant difference | serum CXCL1 level ([6]; among HC, SC and GABA groups): No statistically significant difference

NCCCS(=O)(=O)O [homotaurine]
body weight loss [1]: significantly reduced | death rate [1]: significantly reduced | disease (illness) scores [1]: significantly reduced | lung coefficient index [1]: significantly reduced | disease progression in mouse models of type 1 diabetes, multiple sclerosis, and rheumatoid arthritis [3]: inhibits | CD4+ and CD8+ Treg responses [3]: promoting | autoreactive Th1 and Th17 cells [3]: inhibits
